{"source": "the supplement of paper PMC10307832", "test_in_all_cases": "relative viability (nuclei count vs DMSO), 5 days (fraction); higher = more cells survive", "key": {"AZD8055 + Lapatinib": {"compound": "COc1ccc(-c2ccc3c(N4CCOC[C@@H]4C)nc(N4CCOC[C@@H]4C)nc3n2)cc1CO [AZD8055] + CS(=O)(=O)CCNCc1ccc(-c2ccc3ncnc(Nc4ccc(OCc5cccc(F)c5)c(Cl)c4)c3c2)o1 [Lapatinib] (partner 2 µM)", "how_it_was_run": "(§1)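 Relative viability was taken as the ratio of nuclei in treated wells to nuclei in vehicle wells. Lung cancer cell lines in 1536-well plates received compounds by pin tool one day after seeding, either one drug alone or a fixed anchor-drug dose plus five library-drug doses (not always all listed) in √10 steps. Nuclei were counted on 4× images after 5 days of treatment, and values are medians of duplicate plates.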"}, "AZD8055 + Crizotinib": {"compound": "COc1ccc(-c2ccc3c(N4CCOC[C@@H]4C)nc(N4CCOC[C@@H]4C)nc3n2)cc1CO [AZD8055] + C[C@@H](Oc1cc(-c2cnn(C3CCNCC3)c2)cnc1N)c1c(Cl)ccc(F)c1Cl [Crizotinib] (partner 1 µM)", "how_it_was_run": "as §1"}, "AZD8055 + Dasatinib": {"compound": "COc1ccc(-c2ccc3c(N4CCOC[C@@H]4C)nc(N4CCOC[C@@H]4C)nc3n2)cc1CO [AZD8055] + Cc1nc(Nc2ncc(C(=O)Nc3c(C)cccc3Cl)s2)cc(N2CCN(CCO)CC2)n1 [Dasatinib] (partner 0.075 µM)", "how_it_was_run": "as §1"}, "AZD8055 + Pemetrexed": {"compound": "COc1ccc(-c2ccc3c(N4CCOC[C@@H]4C)nc(N4CCOC[C@@H]4C)nc3n2)cc1CO [AZD8055] + Nc1nc2[nH]cc(CCc3ccc(C(=O)N[C@@H](CCC(=O)O)C(=O)O)cc3)c2c(=O)[nH]1 [Pemetrexed] (partner 0.2 µM)", "how_it_was_run": "as §1"}}, "data": [{"cell line": "HCC-366", "values": [{"measurement": "relative viability", "setting": "AZD8055 + Lapatinib; first compound 0.01 µM", "result": 1.12}, {"measurement": "relative viability", "setting": "AZD8055 + Lapatinib; first compound 0.03162 µM", "result": 0.93}, {"measurement": "relative viability", "setting": "AZD8055 + Lapatinib; first compound 0.1 µM", "result": 0.864}, {"measurement": "relative viability", "setting": "AZD8055 + Lapatinib; first compound 0.3162 µM", "result": 0.27}, {"measurement": "relative viability", "setting": "AZD8055 + Lapatinib; first compound 1 µM", "result": 0.2}, {"measurement": "relative viability", "setting": "AZD8055 + Crizotinib; first compound 0.01 µM", "result": 0.416}, {"measurement": "relative viability", "setting": "AZD8055 + Crizotinib; first compound 0.03162 µM", "result": 0.484}, {"measurement": "relative viability", "setting": "AZD8055 + Crizotinib; first compound 0.1 µM", "result": 0.223}, {"measurement": "relative viability", "setting": "AZD8055 + Crizotinib; first compound 0.3162 µM", "result": 0.107}, {"measurement": "relative viability", "setting": "AZD8055 + Crizotinib; first compound 1 µM", "result": 0.0921}, {"measurement": "relative viability", "setting": "AZD8055 + Dasatinib; first compound 0.01 µM", "result": 0.719}, {"measurement": "relative viability", "setting": "AZD8055 + Dasatinib; first compound 0.03162 µM", "result": 0.401}, {"measurement": "relative viability", "setting": "AZD8055 + Dasatinib; first compound 0.1 µM", "result": 0.241}, {"measurement": "relative viability", "setting": "AZD8055 + Dasatinib; first compound 0.3162 µM", "result": 0.0939}, {"measurement": "relative viability", "setting": "AZD8055 + Dasatinib; first compound 1 µM", "result": 0.0948}, {"measurement": "relative viability", "setting": "AZD8055 + Pemetrexed; first compound 0.01 µM", "result": 0.256}, {"measurement": "relative viability", "setting": "AZD8055 + Pemetrexed; first compound 0.03162 µM", "result": 0.285}, {"measurement": "relative viability", "setting": "AZD8055 + Pemetrexed; first compound 0.1 µM", "result": 0.248}, {"measurement": "relative viability", "setting": "AZD8055 + Pemetrexed; first compound 0.3162 µM", "result": 0.161}, {"measurement": "relative viability", "setting": "AZD8055 + Pemetrexed; first compound 1 µM", "result": 0.109}]}, {"cell line": "HOP-62", "values": [{"measurement": "relative viability", "setting": "AZD8055 + Lapatinib; first compound 0.01 µM", "result": 1.14}, {"measurement": "relative viability", "setting": "AZD8055 + Lapatinib; first compound 0.03162 µM", "result": 0.908}, {"measurement": "relative viability", "setting": "AZD8055 + Lapatinib; first compound 0.1 µM", "result": 0.962}, {"measurement": "relative viability", "setting": "AZD8055 + Lapatinib; first compound 0.3162 µM", "result": 0.369}, {"measurement": "relative viability", "setting": "AZD8055 + Lapatinib; first compound 1 µM", "result": 0.316}, {"measurement": "relative viability", "setting": "AZD8055 + Crizotinib; first compound 0.01 µM", "result": 0.837}, {"measurement": "relative viability", "setting": "AZD8055 + Crizotinib; first compound 0.03162 µM", "result": 0.853}, {"measurement": "relative viability", "setting": "AZD8055 + Crizotinib; first compound 0.1 µM", "result": 0.71}, {"measurement": "relative viability", "setting": "AZD8055 + Crizotinib; first compound 0.3162 µM", "result": 0.387}, {"measurement": "relative viability", "setting": "AZD8055 + Crizotinib; first compound 1 µM", "result": 0.345}, {"measurement": "relative viability", "setting": "AZD8055 + Dasatinib; first compound 0.01 µM", "result": 0.741}, {"measurement": "relative viability", "setting": "AZD8055 + Dasatinib; first compound 0.03162 µM", "result": 0.554}, {"measurement": "relative viability", "setting": "AZD8055 + Dasatinib; first compound 0.1 µM", "result": 0.556}, {"measurement": "relative viability", "setting": "AZD8055 + Dasatinib; first compound 0.3162 µM", "result": 0.272}, {"measurement": "relative viability", "setting": "AZD8055 + Dasatinib; first compound 1 µM", "result": 0.171}, {"measurement": "relative viability", "setting": "AZD8055 + Pemetrexed; first compound 0.01 µM", "result": 0.312}, {"measurement": "relative viability", "setting": "AZD8055 + Pemetrexed; first compound 0.03162 µM", "result": 0.29}, {"measurement": "relative viability", "setting": "AZD8055 + Pemetrexed; first compound 0.1 µM", "result": 0.338}, {"measurement": "relative viability", "setting": "AZD8055 + Pemetrexed; first compound 0.3162 µM", "result": 0.35}, {"measurement": "relative viability", "setting": "AZD8055 + Pemetrexed; first compound 1 µM", "result": 0.242}]}, {"cell line": "NCI-H1944", "values": [{"measurement": "relative viability", "setting": "AZD8055 + Lapatinib; first compound 0.01 µM", "result": 0.766}, {"measurement": "relative viability", "setting": "AZD8055 + Lapatinib; first compound 0.03162 µM", "result": 0.655}, {"measurement": "relative viability", "setting": "AZD8055 + Lapatinib; first compound 0.1 µM", "result": 0.615}, {"measurement": "relative viability", "setting": "AZD8055 + Lapatinib; first compound 0.3162 µM", "result": 0.367}, {"measurement": "relative viability", "setting": "AZD8055 + Lapatinib; first compound 1 µM", "result": 0.336}, {"measurement": "relative viability", "setting": "AZD8055 + Crizotinib; first compound 0.01 µM", "result": 1.09}, {"measurement": "relative viability", "setting": "AZD8055 + Crizotinib; first compound 0.03162 µM", "result": 0.918}, {"measurement": "relative viability", "setting": "AZD8055 + Crizotinib; first compound 0.1 µM", "result": 0.973}, {"measurement": "relative viability", "setting": "AZD8055 + Crizotinib; first compound 0.3162 µM", "result": 0.427}, {"measurement": "relative viability", "setting": "AZD8055 + Crizotinib; first compound 1 µM", "result": 0.343}, {"measurement": "relative viability", "setting": "AZD8055 + Dasatinib; first compound 0.01 µM", "result": 0.187}, {"measurement": "relative viability", "setting": "AZD8055 + Dasatinib; first compound 0.03162 µM", "result": 0.174}, {"measurement": "relative viability", "setting": "AZD8055 + Dasatinib; first compound 0.1 µM", "result": 0.185}, {"measurement": "relative viability", "setting": "AZD8055 + Dasatinib; first compound 0.3162 µM", "result": 0.166}, {"measurement": "relative viability", "setting": "AZD8055 + Dasatinib; first compound 1 µM", "result": 0.152}, {"measurement": "relative viability", "setting": "AZD8055 + Pemetrexed; first compound 0.01 µM", "result": 0.57}, {"measurement": "relative viability", "setting": "AZD8055 + Pemetrexed; first compound 0.03162 µM", "result": 0.568}, {"measurement": "relative viability", "setting": "AZD8055 + Pemetrexed; first compound 0.1 µM", "result": 0.454}, {"measurement": "relative viability", "setting": "AZD8055 + Pemetrexed; first compound 0.3162 µM", "result": 0.286}, {"measurement": "relative viability", "setting": "AZD8055 + Pemetrexed; first compound 1 µM", "result": 0.294}]}, {"cell line": "SW 1573", "values": [{"measurement": "relative viability", "setting": "AZD8055 + Lapatinib; first compound 0.01 µM", "result": 1.25}, {"measurement": "relative viability", "setting": "AZD8055 + Lapatinib; first compound 0.03162 µM", "result": 0.829}, {"measurement": "relative viability", "setting": "AZD8055 + Lapatinib; first compound 0.1 µM", "result": 1.04}, {"measurement": "relative viability", "setting": "AZD8055 + Lapatinib; first compound 0.3162 µM", "result": 0.519}, {"measurement": "relative viability", "setting": "AZD8055 + Lapatinib; first compound 1 µM", "result": 0.27}, {"measurement": "relative viability", "setting": "AZD8055 + Crizotinib; first compound 0.01 µM", "result": 0.777}, {"measurement": "relative viability", "setting": "AZD8055 + Crizotinib; first compound 0.03162 µM", "result": 0.812}, {"measurement": "relative viability", "setting": "AZD8055 + Crizotinib; first compound 0.1 µM", "result": 0.449}, {"measurement": "relative viability", "setting": "AZD8055 + Crizotinib; first compound 0.3162 µM", "result": 0.317}, {"measurement": "relative viability", "setting": "AZD8055 + Crizotinib; first compound 1 µM", "result": 0.21}, {"measurement": "relative viability", "setting": "AZD8055 + Dasatinib; first compound 0.01 µM", "result": 0.583}, {"measurement": "relative viability", "setting": "AZD8055 + Dasatinib; first compound 0.03162 µM", "result": 0.534}, {"measurement": "relative viability", "setting": "AZD8055 + Dasatinib; first compound 0.1 µM", "result": 0.262}, {"measurement": "relative viability", "setting": "AZD8055 + Dasatinib; first compound 0.3162 µM", "result": 0.114}, {"measurement": "relative viability", "setting": "AZD8055 + Dasatinib; first compound 1 µM", "result": 0.103}, {"measurement": "relative viability", "setting": "AZD8055 + Pemetrexed; first compound 0.01 µM", "result": 0.938}, {"measurement": "relative viability", "setting": "AZD8055 + Pemetrexed; first compound 0.03162 µM", "result": 0.728}, {"measurement": "relative viability", "setting": "AZD8055 + Pemetrexed; first compound 0.1 µM", "result": 0.653}, {"measurement": "relative viability", "setting": "AZD8055 + Pemetrexed; first compound 0.3162 µM", "result": 0.285}, {"measurement": "relative viability", "setting": "AZD8055 + Pemetrexed; first compound 1 µM", "result": 0.18}]}]}
